# Laboratory results published in PMC2680759, “Non-Invasive Molecular Imaging of Fibrosis Using a Collagen-Targeted Peptidomimetic of the Platelet Collagen Receptor Glycoprotein VI” (PLoS ONE, 2009).
# Bridges are numbered along the chain shown (N, C = ends). Where no end group is shown, it is not given here.
# Experiments:
# Conditions in all cases: biotin-peptide 50 µg/mL, microtitration plate, n = 3
# fibrinogen = target: T1, fibrinogen (Bos taurus, UniProt P02672+P02676+P12799); experiment: Solid phase assay, fibrinogen; assay type: binding, bovine
# T1 sequence (P02672 20-615): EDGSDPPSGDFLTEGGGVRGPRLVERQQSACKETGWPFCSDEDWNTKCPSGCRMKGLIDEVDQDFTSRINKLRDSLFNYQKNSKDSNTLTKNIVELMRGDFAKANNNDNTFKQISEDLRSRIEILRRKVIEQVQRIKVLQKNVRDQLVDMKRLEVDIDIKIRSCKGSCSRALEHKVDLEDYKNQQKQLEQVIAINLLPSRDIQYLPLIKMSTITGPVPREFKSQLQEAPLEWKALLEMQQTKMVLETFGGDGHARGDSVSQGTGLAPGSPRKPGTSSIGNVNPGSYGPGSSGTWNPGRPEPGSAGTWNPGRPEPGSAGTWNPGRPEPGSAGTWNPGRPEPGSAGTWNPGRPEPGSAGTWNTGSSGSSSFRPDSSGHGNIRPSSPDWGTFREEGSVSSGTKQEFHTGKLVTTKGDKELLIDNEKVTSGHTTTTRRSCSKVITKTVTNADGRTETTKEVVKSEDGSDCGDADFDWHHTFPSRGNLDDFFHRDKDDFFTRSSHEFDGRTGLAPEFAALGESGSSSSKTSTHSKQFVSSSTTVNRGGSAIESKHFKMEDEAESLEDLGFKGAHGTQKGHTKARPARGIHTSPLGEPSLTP
# T1 sequence (P02676 1-468): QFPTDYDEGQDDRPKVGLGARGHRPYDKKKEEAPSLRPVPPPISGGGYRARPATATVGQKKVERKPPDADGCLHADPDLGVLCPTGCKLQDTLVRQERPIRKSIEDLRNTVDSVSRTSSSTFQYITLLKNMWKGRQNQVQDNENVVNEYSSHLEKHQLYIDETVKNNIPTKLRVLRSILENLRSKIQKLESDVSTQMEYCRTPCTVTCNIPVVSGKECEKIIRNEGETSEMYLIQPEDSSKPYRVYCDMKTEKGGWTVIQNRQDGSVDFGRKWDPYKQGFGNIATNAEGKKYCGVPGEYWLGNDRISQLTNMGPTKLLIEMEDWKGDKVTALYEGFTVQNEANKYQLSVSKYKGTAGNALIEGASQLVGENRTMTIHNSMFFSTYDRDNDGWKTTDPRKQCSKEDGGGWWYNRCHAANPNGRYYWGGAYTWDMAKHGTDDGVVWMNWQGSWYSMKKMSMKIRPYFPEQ
# T1 sequence (P12799 25-444): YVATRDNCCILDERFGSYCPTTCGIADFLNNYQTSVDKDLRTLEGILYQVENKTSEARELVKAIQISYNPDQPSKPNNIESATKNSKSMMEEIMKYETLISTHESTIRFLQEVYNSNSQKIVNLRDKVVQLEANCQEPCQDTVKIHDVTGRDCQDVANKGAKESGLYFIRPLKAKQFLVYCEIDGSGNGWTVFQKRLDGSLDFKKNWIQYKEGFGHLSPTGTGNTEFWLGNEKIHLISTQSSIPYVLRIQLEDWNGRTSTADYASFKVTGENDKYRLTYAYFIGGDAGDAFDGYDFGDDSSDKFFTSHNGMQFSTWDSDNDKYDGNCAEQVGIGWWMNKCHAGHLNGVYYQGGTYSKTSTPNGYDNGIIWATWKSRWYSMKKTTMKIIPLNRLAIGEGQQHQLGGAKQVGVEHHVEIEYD
# Method: (§1) Biotin-peptides (50 µg.mL^−1) were incubated on microtitration wells, coated with 1 µg of type-I collagen, convulxin, collagen related peptides, bovine fibrinogen, human fibronectin, rat vitronectin, murine laminin or bovine serum albumin. Bound peptides were detected using HRP-coupled extravidin and the HRP substrate O-phenyl-dianisidine.
# fibronectin = fibronectin (Homo sapiens, UniProt P02751); experiment: Solid phase assay, fibronectin; assay type: binding
# Chain of fibronectin (P02751 32-2477): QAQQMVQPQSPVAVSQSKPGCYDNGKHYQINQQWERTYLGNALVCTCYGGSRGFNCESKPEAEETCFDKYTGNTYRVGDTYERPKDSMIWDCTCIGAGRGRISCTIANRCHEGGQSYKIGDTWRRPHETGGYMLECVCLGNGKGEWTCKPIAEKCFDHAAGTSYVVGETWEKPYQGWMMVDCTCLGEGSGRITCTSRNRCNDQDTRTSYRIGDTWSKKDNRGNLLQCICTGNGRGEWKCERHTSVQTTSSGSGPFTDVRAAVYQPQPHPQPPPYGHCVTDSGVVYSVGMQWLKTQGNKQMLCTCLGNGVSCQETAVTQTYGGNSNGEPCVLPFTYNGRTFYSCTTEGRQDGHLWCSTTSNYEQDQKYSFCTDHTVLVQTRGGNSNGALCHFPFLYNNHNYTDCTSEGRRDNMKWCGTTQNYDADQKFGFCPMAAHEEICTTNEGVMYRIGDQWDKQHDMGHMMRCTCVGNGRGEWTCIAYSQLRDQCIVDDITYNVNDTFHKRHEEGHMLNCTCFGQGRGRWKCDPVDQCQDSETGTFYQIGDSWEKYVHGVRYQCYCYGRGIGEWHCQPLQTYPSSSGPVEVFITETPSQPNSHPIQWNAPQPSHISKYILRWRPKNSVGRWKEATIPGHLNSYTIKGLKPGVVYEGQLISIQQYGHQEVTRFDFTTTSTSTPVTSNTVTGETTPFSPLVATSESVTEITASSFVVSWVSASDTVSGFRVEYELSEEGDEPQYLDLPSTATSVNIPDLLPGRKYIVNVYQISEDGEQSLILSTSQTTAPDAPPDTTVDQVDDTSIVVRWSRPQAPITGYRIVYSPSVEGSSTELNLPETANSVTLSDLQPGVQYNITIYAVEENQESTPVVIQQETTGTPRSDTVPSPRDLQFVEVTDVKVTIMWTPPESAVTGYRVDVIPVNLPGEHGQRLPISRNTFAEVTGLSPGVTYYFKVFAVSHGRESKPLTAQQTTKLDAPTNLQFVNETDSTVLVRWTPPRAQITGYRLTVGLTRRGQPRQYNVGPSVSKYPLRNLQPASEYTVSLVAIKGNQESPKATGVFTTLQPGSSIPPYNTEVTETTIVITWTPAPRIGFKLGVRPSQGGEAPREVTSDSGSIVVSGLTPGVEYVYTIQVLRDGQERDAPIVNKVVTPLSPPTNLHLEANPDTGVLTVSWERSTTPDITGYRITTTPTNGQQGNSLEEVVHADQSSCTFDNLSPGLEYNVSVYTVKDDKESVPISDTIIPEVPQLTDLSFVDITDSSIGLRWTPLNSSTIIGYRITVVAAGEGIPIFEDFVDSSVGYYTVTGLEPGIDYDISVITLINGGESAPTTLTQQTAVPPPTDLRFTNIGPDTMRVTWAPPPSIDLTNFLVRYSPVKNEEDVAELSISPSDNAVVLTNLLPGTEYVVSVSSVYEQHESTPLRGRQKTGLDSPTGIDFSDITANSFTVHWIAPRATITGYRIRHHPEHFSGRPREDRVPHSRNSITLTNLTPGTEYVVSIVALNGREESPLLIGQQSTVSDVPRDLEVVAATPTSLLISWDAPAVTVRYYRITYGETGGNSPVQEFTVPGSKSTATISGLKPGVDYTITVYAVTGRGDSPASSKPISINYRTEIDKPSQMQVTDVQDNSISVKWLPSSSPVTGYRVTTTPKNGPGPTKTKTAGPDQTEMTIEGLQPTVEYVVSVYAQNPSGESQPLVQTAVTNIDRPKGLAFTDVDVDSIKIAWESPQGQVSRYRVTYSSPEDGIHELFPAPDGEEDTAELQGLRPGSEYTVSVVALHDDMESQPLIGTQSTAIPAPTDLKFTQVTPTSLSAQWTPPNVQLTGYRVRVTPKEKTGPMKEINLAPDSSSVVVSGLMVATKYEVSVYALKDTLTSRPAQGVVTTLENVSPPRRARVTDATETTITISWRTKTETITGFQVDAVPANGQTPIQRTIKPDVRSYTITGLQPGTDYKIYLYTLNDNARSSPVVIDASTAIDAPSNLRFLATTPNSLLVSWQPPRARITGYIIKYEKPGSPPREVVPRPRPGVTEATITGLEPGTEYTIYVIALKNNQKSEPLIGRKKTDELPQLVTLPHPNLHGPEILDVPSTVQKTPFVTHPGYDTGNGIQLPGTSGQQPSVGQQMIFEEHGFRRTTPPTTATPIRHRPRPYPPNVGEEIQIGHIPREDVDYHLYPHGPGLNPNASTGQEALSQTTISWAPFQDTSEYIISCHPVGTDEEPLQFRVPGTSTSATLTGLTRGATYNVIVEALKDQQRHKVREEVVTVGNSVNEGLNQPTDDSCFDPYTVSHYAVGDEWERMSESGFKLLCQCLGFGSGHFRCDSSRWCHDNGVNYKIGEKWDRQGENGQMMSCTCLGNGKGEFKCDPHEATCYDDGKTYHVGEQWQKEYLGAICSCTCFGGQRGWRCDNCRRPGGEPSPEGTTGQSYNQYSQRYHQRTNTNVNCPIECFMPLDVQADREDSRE
# Method: as §1
# vitronectin = target: T2, vitronectin (Rattus norvegicus, UniProt F7F5X0); experiment: Solid phase assay, vitronectin; assay type: binding
# T2 sequence (F7F5X0 20-490): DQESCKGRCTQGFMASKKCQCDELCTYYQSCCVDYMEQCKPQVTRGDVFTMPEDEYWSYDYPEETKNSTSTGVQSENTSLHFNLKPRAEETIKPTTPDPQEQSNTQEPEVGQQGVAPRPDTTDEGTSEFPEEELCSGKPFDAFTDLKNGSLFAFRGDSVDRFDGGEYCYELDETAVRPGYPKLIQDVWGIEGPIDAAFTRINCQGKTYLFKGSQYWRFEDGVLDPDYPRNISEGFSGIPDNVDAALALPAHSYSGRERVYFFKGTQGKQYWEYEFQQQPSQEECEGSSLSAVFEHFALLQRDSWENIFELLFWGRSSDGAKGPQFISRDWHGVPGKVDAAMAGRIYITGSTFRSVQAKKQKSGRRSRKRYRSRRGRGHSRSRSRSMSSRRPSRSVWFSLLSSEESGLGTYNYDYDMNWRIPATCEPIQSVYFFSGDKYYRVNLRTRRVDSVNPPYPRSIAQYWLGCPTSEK
# Method: as §1
# [1] = system: collagen related peptide (CRP); experiment: Solid phase assay, collagen related peptide; assay type: binding
# Method: as §1
# laminin = laminin (Mus musculus, UniProt P02468+P02469+P19137); experiment: Solid phase assay, laminin; assay type: binding, murine
# Method: as §1
Binding to immobilized fibrinogen (fibrinogen),Binding to immobilized fibronectin (fibronectin),Binding to immobilized vitronectin (vitronectin),Binding to immobilized CRP [1],Binding to immobilized laminin (laminin),Compound
either to be weak or not to occur at all,either to be weak or not to occur at all,either to be weak or not to occur at all,bound,consistently bound,CSCC[C@@H]1NC(=O)[C@H](C(C)C)NC(=O)[C@H](CCCNC(=N)N)NC(=O)CNC(=O)[C@@H]2CCCN2C(=O)[C@@H](NC(=O)CNC(=O)[C@H](CO)NC(=O)CNC(=O)[C@H](CO)NC(=O)CCCC[C@@H]2SC[C@@H]3NC(=O)N[C@@H]32)CSSC[C@@H](C(N)=O)NC(=O)[C@@H]2CCCN2C(=O)CNC(=O)[C@H](CCC(=O)O)NC(=O)[C@H](CC(=O)O)NC(=O)[C@H](CC(=O)O)NC(=O)CNC(=O)[C@H](CC(C)C)NC(=O)[C@H](Cc2c[nH]cn2)NC(=O)[C@H](CC(C)C)NC(=O)CNC(=O)[C@H](Cc2c[nH]cn2)NC1=O [collagelin]
did not bind,did not bind,did not bind,did not bind,did not bind,SGSGCGPQGARGLTGASAGGPC (disulfide 5-22 (inferred)) [reference compound]
